From US20140072999A1, “METHODS OF SIMULATING CHEMOTHERAPY FOR A PATIENT” (Precision Therapeutics, Inc., priority 2008, published 2014)

Tests used:
[1] = tested on: tumor cells cultured from primary ovarian cancer specimens; assay: in vitro chemoresponse assay (ChemoFx), AUC7 drug response score; assay type: cell-based, human; details: for share of tumors exhibiting in vitro resistance: AUC7 score >75th rank, patients of the observational study; for AUC (first seven doses) of the 25% of historical dose response curves with the highest scores (resistant cut-off) / AUC (first 7 doses) of the 25% of historical dose response curves with the lowest scores (sensitive cut-off): sum of survival fractions over doses 1-7, more than 2,000 specimens; for AUC (first 7 doses) of the 25% of historical dose response curves with the lowest scores (sensitive cut-off): smaller score = more sensitive
Description: Briefly, in certain embodiments, cohesive multicellular particulates (explants) are prepared from a patient's tissue sample (e.g., a biopsy sample or surgical specimen) using mechanical fragmentation. This mechanical fragmentation of the explant may take place in a medium substantially free of enzymes that are capable of digesting the explant. Some enzymatic digestion may take place in certain embodiments. Generally, the tissue sample is systematically minced using two sterile scalpels in a scissor-like motion, or mechanically equivalent manual or automated opposing incisor blades. This cross-cutting motion creates smooth cut edges on the resulting tissue multicellular particulates. The tumor particulates each measure from about 0.25 to about 1.5 mm^3, for example, about 1 mm^3.
After the tissue sample has been minced, the particles are plated in culture flasks. The number of explants plated per flask may vary, for example, between one and 25, such as from 5 to 20 explants per flask. For example, about 9 explants may be plated per T-25 flask, and 20 particulates may be plated per T-75 flask. For purposes of illustration, the explants may be evenly distributed across the bottom surface of the flask, followed by initial inversion for about 10-15 minutes. The flask may then be placed in a non-inverted position in a 37° C. CO2 incubator for about […], Flasks are checked regularly for growth and contamination. Over a period of a few weeks a cell monolayer will form. Further, it is believed (without any intention of being bound by the theory) that tumor cells grow out from the multicellular explant prior to stromal cells. Thus, by initially maintaining the tissue cells within the explant and removing the explant at a predetermined time (e.g., at about 10 to about 50 percent confluency, or at about 15 to about 25 percent confluency), growth of the tumor cells (as opposed to stromal cells) into a monolayer is facilitated. In certain embodiments, the tumor explant may be agitated to substantially release tumor cells from the tumor explant, and the released cells cultured to produce a cell culture monolayer. The use of this procedure to form a cell culture monolayer helps maximize the growth of representative tumor cells from the tissue sample.
A panel of active agents may then be screened using the cultured cells. Generally, the agents are tested against the cultured cells using plates such as microtiter plates. For the chemosensitivity assay, a reproducible number of cells is delivered to a plurality of wells on one or more plates, preferably with an even distribution of cells throughout the wells. For example, cell suspensions are generally formed from the monolayer cells before substantial phenotypic drift of the tumor cell population occurs. The cell suspensions may be, without limitation, about 4,000 to 12,000 cells/ml, or may be about 4,000 to 9,000 cells/ml, or about 7,000 to 9,000 cells/ml. The individual wells for chemoresponse testing are inoculated with the cell suspension, with each well or “segregated site” containing about 10^2 to 10^4 cells. The cells are generally cultured in the segregated sites for about 4 to about 30 hours prior to contact with an agent.
The efficacy of each agent in the panel is determined against the patient's cultured cells, by determining the viability of the cells (e.g., number of viable cells). For example, at predetermined intervals before, simultaneously with, or beginning immediately after, contact with each agent or combination, an automated cell imaging system may take images of the cells using one or more of visible light, UV light and fluorescent light. Alternatively, the cells may be imaged after about 25 to about 200 hours of contact with each treatment. The cells may be imaged once or multiple times, prior to or during contact with each treatment. Of course, any method for determining the viability of the cells may be used to assess the efficacy of each treatment in vitro. […]

[2] = tested on: FIGO stage III-IV ovarian, fallopian and peritoneal cancer; assay: observational study: progression-free survival by in vitro response, patients treated with carboplatin + paclitaxel after cytoreductive surgery; assay type: in vivo, human; details: patients treated with C+P; for hazard ratio of disease progression, in vitro resistant vs S+I: univariate
Source text: Women with FIGO stage III-IV ovarian, fallopian and peritoneal cancer were enrolled in an observational study and received in vitro chemoresponse testing between 2006 and 2010. Two hundred seventy-six (276) patients treated with carboplatin (C)+paclitaxel (P) following cytoreductive surgery were included in this analysis. Tumor response to C or P was classified into one of three categories according to assay response score: sensitive (S), intermediately sensitive (I), and resistant (R). Patient clinical information and progression-free survival (PFS) were retrospectively collected. Association of assay drug response with […] was analyzed using Kaplan-Meier procedure and Cox regression model.

[3] = grouped by in vitro response to the named drug

SMILES | share of tumors exhibiting in vitro resistance [1] | AUC (first seven doses) of the 25% of historical dose response curves with the highest scores (resistant cut-off) [1] | AUC (first 7 doses) of the 25% of historical dose response curves with the lowest scores (sensitive cut-off) [1] | hazard ratio of disease progression, in vitro resistant vs S+I, multivariate analysis ([2]; controlled for clinical covariates) | median PFS, tumors intermediately sensitive (I) in vitro [2, 3] | median PFS, tumors resistant (R) in vitro [2, 3] | median PFS, tumors sensitive (S) in vitro [2, 3] | hazard ratio of disease progression, in vitro resistant vs S+I [2]
N.N.O=C([O-])C1(C(=O)[O-])CCC1.[Pt+2] [carboplatin, Carboplatin] | 19% | ≥ 5.5 | ≤ 4.3 | 1.71 | 16.6 months | 11.8 months | 17.4 months | 1.87
CC(=O)O[C@H]1C(=O)[C@@]2(C)[C@H]([C@H](OC(=O)c3ccccc3)[C@]3(O)C[C@H](OC(=O)[C@H](O)[C@@H](NC(=O)c4ccccc4)c4ccccc4)C(C)=C1C3(C)C)[C@]1(OC(C)=O)CO[C@@H]1C[C@@H]2O [paclitaxel, Paclitaxel] | 22% | ≥ 6.0 | ≤ 5.0 | – | – | – | – | 1.43
